Results: PMC11191602, “A novel and selective fluorescent ligand for the study of adenosine A2B receptors” (Pharmacology Research & Perspectives, 2024)

Experiments:
human NLuc‐A1R = target: T1, human NLuc‐A1R (Homo sapiens, UniProt P30542); experiment: NanoBRET saturation binding in stable HEK293T cell line expressing NLuc‐A1R; settings: non‐specific defined with 1 μM SLV320; PSB603‐BY630 at concentrations up to 500 nM
T1 construct: expressed in transfected cells
T1 sequence (P30542 1-326): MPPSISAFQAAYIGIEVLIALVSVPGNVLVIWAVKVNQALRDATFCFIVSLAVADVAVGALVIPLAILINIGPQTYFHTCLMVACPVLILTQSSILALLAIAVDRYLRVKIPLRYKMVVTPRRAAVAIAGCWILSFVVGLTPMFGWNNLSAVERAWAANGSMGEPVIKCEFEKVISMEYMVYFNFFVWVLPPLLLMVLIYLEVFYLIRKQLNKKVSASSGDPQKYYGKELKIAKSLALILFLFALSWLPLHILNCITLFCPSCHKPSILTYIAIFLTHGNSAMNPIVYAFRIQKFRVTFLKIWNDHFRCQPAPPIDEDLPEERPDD
Protocol: (§1) Saturation and competition binding assays were performed as previously described.[36] Briefly, cells were seeded in 96‐well white clear‐bottomed Greiner plates pre‐treated with 10 μg/mL poly‐D‐lysine (Sigma‐Aldrich, Missouri USA) at a density of 30 000–35 000 cells per well in DMEM supplemented with 10% FBS. […] The NanoLuc substrate, furimazine (Promega Corporation, Wisconsin, USA), was then added to each well (1:400 dilution) and the plate was incubated for 10 min in the dark at 37°C. The resulting bioluminescence resonance energy transfer (BRET) was measured using a PHERAstar FS plate reader (BMG Labtech) at 37°C. For each well, filtered light emissions at 460 nm (80 nm bandpass) and >610 nm (longpass) for the BODIPY630/650 ligand were simultaneously measured. BRET ratios were calculated by dividing the 610 nm emission by the 460 nm emission. All conditions were performed in 2–6 replicates within each plate. For kinetic experiments, cells were preincubated for 10 min with 1:400 dilution of furimazine prior to addition of 200 nM PSB603‐BY630 and BRET ratios determined every 0.5 min. At 60 min, 10 μM MRS‐1706 was added and the ligand‐binding kinetics followed for a further 60 min.

endogenous A2BR = target: T2, endogenous A2BR (Homo sapiens, UniProt P29275); experiment: cAMP GloSensor luminescence assay in HEK293G cells endogenously expressing A2BR; type: cell-based; settings: 20 nM and 200 nM PSB603‐BY630, endogenous A2BR
T2 construct: HEK293G cells that express the cAMP biosensor Glosensor also endogenously express both A2BR and A2AR; host or cells: HEK293G
T2 sequence (P29275 1-332): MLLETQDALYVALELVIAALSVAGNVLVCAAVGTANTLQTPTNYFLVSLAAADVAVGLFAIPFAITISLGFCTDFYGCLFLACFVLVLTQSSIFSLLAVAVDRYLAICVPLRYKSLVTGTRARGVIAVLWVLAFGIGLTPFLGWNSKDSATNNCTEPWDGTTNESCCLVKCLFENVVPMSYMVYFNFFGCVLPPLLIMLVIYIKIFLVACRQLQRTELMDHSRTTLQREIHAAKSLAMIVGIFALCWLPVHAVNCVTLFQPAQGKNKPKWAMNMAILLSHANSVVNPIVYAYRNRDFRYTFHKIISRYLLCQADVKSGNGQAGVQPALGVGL
Protocol: (§2) The cAMP GloSensor™ luminescence assay was performed according to the manufacturer's instructions (Promega Corporation, Madison, WI, USA). Briefly, after 24 h incubation at 37°C and 5% CO2 after cell plating (40 000 cells/well in 100 μL), medium was aspirated from each well of the 96‐well plate. Cells were incubated in 50 μL HEPES buffered saline solution (HBSS; 2 mM sodium pyruvate, 145 mM NaCl, 10 mM D‐glucose, 5 mM KCl, 1 mM MgSO4.7H2O, 10 mM HEPES, 1.3 mM CaCl2, 1.5 mM NaHCO3 in double‐distilled water, pH 7.45) containing 3% GloSensor™ cAMP reagent at 37°C for 1.5 h. For agonist studies, an initial baseline luminescence read was made at time zero, the plate was then removed from the plate‐reader and a further 50 μL HBSS containing agonist (2× final concentration) or HBSS (vehicle control) added. Luminescence was measured on an open channel (gain of 3600) immediately after these additions, and then continuously over 60 min, reading each well once every minute, by a PHERAstar FSX microplate reader (BMG Labtech, Offenburg, Germany) at 37°C. Increases in luminescence are indicative of intracellular cAMP accumulation, thus the temporal changes in relative cytosolic cAMP concentration were measured upon agonist or vehicle addition. Antagonist action was determined following 30 min pre‐incubation of HBSS in the presence of 20 and 200 nM PSB603‐BY630 and read as above. All conditions were performed in triplicates within each plate.

NLuc‐A2BR = target: T3, NLuc‐A2BR (Homo sapiens, UniProt P29275); experiment: cAMP GloSensor luminescence assay in HEK293G cells overexpressing NLuc‐A2BR; type: cell-based; settings: 20 nM and 200 nM PSB603‐BY630, overexpressed NLuc‐A2BR
T3 construct: expressed in transfected cells
T3 sequence (P29275 1-332): T2 sequence (P29275 1-332)
Protocol: as §2

human NLuc‐A3R = target: T4, human NLuc‐A3R (Homo sapiens, UniProt P0DMS8); experiment: NanoBRET saturation binding in stable HEK293G cell line expressing NLuc‐A3R; settings: non‐specific defined with 1 μM MRS‐1220; PSB603‐BY630 at concentrations up to 500 nM
T4 construct: expressed in transfected cells
T4 sequence (P0DMS8 1-318): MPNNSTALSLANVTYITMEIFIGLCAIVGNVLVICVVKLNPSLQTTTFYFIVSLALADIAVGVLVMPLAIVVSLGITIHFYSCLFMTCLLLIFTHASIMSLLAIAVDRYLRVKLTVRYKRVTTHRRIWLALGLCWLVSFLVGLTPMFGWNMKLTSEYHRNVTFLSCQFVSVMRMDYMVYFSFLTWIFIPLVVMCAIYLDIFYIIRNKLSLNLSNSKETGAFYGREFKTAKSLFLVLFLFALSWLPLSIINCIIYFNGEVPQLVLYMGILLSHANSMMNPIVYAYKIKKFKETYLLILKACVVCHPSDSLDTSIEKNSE
Protocol: as §1

specific binding to NLuc‐A1R (human NLuc‐A1R): negligible | specific binding to NLuc‐A3R (human NLuc‐A3R): negligible
Structure (SMILES): CCCn1c(=O)[nH]c2[nH]c(-c3ccc(S(=O)(=O)N4CCN(c5ccc(OCCNC(=O)CCCCCNC(=O)COc6ccc(/C=C/C7=[N+]8C(=Cc9ccc(-c%10cccs%10)n9[B-]8(F)F)C=C7)cc6)cc5)CC4)cc3)nc2c1=O [PSB603‐BY630]
effect on cAMP concentration‐response curve to BAY 60–6583 (endogenous A2BR): concentration‐dependent reduction in the maximal response to BAY 60–6583 without altering the EC50 | effect on cAMP concentration‐response curve to BAY 60–6583 (NLuc‐A2BR): small increase in the EC50 for BAY 60–6583
